Experimental findings from ChEMBL document CHEMBL1131391, “Identification and characterization of m4 selective muscarinic antagonists” (Bioorg Med Chem Lett, 1998) are described below.

SMILES strings stand for the structures. Some results are limits rather than exact numbers.

The target of experiment [1] is T1, Muscarinic acetylcholine receptor M4 (Homo sapiens, UniProt P08173).
T1 sequence (P08173 whole entry): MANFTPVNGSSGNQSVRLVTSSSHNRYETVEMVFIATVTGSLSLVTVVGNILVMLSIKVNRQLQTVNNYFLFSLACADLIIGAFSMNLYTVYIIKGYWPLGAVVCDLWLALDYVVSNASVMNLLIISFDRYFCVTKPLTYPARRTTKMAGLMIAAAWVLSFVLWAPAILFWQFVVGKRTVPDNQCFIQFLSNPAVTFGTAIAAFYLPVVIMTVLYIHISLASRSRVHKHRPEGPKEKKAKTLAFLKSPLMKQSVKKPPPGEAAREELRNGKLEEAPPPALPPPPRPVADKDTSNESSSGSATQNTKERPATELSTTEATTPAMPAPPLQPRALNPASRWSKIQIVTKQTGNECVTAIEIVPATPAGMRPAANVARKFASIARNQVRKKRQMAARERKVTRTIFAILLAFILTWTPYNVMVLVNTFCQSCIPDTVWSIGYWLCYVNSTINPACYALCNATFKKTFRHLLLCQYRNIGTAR
In words: Evaluated for its binding affinity at human muscarinic receptor m4 by the displacement of [3H]NMS binding using membranes from transfected chinese hamster ovarian cell. (In general: In a radioligand displacement assay an active substance lowers the binding of a labelled ligand.)

Experiment [2] addresses T2, Muscarinic acetylcholine receptor M3 (Homo sapiens, UniProt P20309). As to the kind of experiment: Evaluated for its binding affinity at human muscarinic receptor m3 by the displacement of [3H]NMS binding using membranes from transfected chinese hamster ovarian cell. Format: cell-based.
Target sequence in this assay (P20309 whole entry): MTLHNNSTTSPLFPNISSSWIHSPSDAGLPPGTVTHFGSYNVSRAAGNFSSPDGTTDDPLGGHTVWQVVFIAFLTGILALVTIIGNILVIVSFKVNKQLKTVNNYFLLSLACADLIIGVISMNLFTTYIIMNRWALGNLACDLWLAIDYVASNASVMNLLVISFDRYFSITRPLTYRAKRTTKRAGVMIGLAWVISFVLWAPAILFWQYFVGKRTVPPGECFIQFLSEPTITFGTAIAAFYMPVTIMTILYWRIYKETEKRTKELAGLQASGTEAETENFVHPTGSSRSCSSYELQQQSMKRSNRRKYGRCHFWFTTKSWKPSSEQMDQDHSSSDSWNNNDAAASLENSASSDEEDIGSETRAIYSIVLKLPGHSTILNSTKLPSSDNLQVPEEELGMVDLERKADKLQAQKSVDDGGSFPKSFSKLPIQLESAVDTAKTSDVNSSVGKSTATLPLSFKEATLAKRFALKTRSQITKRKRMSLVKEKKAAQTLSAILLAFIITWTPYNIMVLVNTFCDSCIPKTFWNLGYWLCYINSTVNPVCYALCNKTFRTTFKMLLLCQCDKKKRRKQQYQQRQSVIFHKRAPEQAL
In experiment [3] the target is T3, Muscarinic acetylcholine receptor M2 (Homo sapiens, UniProt P08172).
T3 sequence (P08172 whole entry): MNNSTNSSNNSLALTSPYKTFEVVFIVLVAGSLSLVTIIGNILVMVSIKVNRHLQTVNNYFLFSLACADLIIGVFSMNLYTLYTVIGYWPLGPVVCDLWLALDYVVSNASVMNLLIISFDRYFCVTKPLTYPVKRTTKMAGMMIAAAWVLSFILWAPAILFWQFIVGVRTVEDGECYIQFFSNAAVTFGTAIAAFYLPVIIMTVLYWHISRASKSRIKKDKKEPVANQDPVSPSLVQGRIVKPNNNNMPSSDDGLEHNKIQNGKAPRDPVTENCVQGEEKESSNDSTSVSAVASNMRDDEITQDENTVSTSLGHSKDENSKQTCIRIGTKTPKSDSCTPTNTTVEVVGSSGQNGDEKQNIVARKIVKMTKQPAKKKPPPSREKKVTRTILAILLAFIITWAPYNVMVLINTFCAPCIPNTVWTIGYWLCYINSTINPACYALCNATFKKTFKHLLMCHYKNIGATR
As to the kind of experiment: Evaluated for its binding affinity at human muscarinic receptor m2 by displacement of [3H]NMS binding using membranes from transfected chinese hamster ovarian cell.

The target in experiment [4] is T4, Muscarinic acetylcholine receptor M5 (Homo sapiens, UniProt P08912).
T4 sequence (P08912 whole entry): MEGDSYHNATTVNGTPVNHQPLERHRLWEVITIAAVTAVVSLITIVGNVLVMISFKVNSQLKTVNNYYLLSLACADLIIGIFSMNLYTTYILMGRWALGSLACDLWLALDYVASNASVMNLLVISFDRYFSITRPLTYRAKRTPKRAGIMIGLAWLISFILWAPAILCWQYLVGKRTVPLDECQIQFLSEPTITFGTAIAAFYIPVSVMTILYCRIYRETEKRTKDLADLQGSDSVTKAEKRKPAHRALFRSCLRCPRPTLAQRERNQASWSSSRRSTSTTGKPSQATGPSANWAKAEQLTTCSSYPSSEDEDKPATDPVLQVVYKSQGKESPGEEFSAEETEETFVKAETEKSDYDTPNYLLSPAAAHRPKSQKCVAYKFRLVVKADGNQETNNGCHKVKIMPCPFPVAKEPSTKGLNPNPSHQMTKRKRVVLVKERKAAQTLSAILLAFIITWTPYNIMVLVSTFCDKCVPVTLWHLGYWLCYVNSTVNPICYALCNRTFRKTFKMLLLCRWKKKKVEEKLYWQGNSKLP
In words: Evaluated for its binding affinity at human muscarinic receptor m5 by the displacement of [3H]NMS binding using membranes from transfected chinese hamster ovarian cell.

Experiment [5] addresses T5, Muscarinic acetylcholine receptor M1 (Homo sapiens, UniProt P11229).
T5 sequence (P11229 whole entry): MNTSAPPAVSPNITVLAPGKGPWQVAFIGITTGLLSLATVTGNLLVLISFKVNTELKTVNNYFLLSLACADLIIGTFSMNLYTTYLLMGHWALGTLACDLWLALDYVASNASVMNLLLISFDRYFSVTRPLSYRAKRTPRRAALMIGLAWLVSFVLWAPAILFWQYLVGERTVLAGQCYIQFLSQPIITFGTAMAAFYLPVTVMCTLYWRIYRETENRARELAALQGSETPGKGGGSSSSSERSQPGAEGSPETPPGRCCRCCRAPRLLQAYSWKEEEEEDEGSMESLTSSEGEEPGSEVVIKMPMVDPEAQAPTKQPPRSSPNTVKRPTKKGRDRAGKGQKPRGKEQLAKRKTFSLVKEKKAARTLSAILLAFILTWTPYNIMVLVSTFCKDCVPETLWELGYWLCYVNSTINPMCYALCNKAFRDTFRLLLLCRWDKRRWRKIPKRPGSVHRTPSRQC
In words: Evaluated for its binding affinity at human muscarinic receptor m1 by displacement of [3H]NMS binding using membranes in transfected chinese hamster ovarian cell. The class given is cell-based.

The target in experiment [6] is T6, Muscarinic acetylcholine receptor M5 (Homo sapiens) (UniProt P08912).
T6 sequence (whole entry): T4 sequence (P08912 whole entry)
In words: Compound was evaluated for its binding affinity at human muscarinic receptor Hm5 by the displacement of [3H]NMS radioligand using membranes from transfected chinese hamster ovarian cell at 100 nM concentration.

Experiment [7] has as its target T2, Muscarinic acetylcholine receptor M3. In words: Compound was evaluated for its binding affinity at human muscarinic receptor Hm3 by the displacement of [3H]NMS radioligand using membranes from transfected chinese hamster ovarian cell at 1000 nM concentration.
Target sequence in this assay (P20309 whole entry, looked up): as the sequence (P20309 whole entry) above
Experiment [8] has the same target. In words: Compound was evaluated for its binding affinity at human muscarinic receptor Hm3 by the displacement of [3H]NMS radioligand using membranes from transfected chinese hamster ovarian cell at 100 nM concentration.
Target sequence in this assay (P20309 whole entry, looked up): as the sequence (P20309 whole entry) above
The target of experiment [9] is T7, Muscarinic acetylcholine receptor M4 (Homo sapiens) (UniProt P08173).
T7 sequence (whole entry): T1 sequence (P08173 whole entry)
As to the kind of experiment: Compound was evaluated for its binding affinity at human muscarinic receptor Hm4 by the displacement of [3H]-NMS radioligand using membranes from transfected chinese hamster ovarian cell at 1000 nM concentration.

Experiment [10] addresses T8, Muscarinic acetylcholine receptor M2 (Homo sapiens) (UniProt P08172).
T8 sequence (whole entry): T3 sequence (P08172 whole entry)
As to the kind of experiment: Compound was evaluated for its binding affinity at human muscarinic receptor m2 by displacement of [3H]NMS radioligand using membranes from transfected chinese hamster ovarian cell at 100 nM concentration.

In experiment [11] the target is T8, Muscarinic acetylcholine receptor M2 (Homo sapiens). As to the kind of experiment: Compound was evaluated for its binding affinity at human muscarinic receptor m2 by the displacement of [3H]NMS radioligand using membranes from transfected chinese hamster ovarian cell at 1000 nM concentration.
In experiment [12] the target is T6, Muscarinic acetylcholine receptor M5 (Homo sapiens). In words: Compound was evaluated for its binding affinity at human muscarinic receptor Hm5 by the displacement of [3H]-NMS radioligand using membranes from transfected chinese hamster ovarian cell at 1000 nM concentration.
Experiment [13] addresses T7, Muscarinic acetylcholine receptor M4 (Homo sapiens). In words: Compound was evaluated for its binding affinity at human muscarinic receptor Hm4 by the displacement of [3H]NMS radioligand using membranes from transfected chinese hamster ovarian cell at 100 nM concentration.

The IC50 is the point on the concentration scale where inhibition reaches its midpoint. The low end stands for greater potency, the high end for weaker potency. With `COC(=O)c1c(C)[nH]c2ccc3c(c12)CN1CCc2ccccc2C1O3` (stereo unspecified), the IC50 in experiment [1] came to 9.93 µM; in experiment [2], 12.6 µM; in [3], 4.66 µM; in experiment [4], 5.76 µM; in experiment [5], 7.12 µM.
Regarding `CCOC(=O)c1c(C)[nH]c2ccc3c(c12)CN1CCc2ccc(OC)cc2C1O3` (stereo unspecified), the IC50 in [1] turned out to be 6.03 µM; in experiment [2] it was 10.8 µM; in experiment [3], 3 µM; in [4] it was 8.21 µM; in [5] it was 9.02 µM.
Turning to `CCOC(=O)c1c(C)[nH]c2ccc3c(c12)CN1CCc2ccccc2C1O3` (stereo unspecified), the IC50 turned out to be 3.71 µM in experiment [1]; 5.49 µM in experiment [2]; 2.68 µM in [3]; 4.19 µM in experiment [4]; 5.01 µM in experiment [5].
As to `COc1ccc2c(c1)CCN1Cc3c(ccc4[nH]c(C)cc34)OC21` (stereo unspecified), the concentration for half-maximal inhibition (IC50) worked out at 9.74 µM in experiment [1]; 15.3 µM in experiment [2]; 1.15 µM in experiment [3]; 18 µM in experiment [4]; 10.8 µM in experiment [5].
On to `COc1ccc2c(c1)CCN1Cc3c(ccc4[nH]c(C)c(C(=O)OC(C)C)c34)OC21` (stereo unspecified), for which the IC50 is 2.05 µM in experiment [1]; 2.82 µM in experiment [2]; 2.64 µM in [3]; 4.74 µM in experiment [4]; 4.06 µM in [5].
Turning to `CC1OC(=O)[C@H]2C[C@H]3CCCC[C@@H]3[C@@H](/C=C/C3CCC[C@H](C)N3C)[C@@H]12` (single isomer, unassigned) [HIMBACINE], the concentration for half-maximal inhibition (IC50) in experiment [3] was 0.0175 µM; in [4], 1.02 µM; in experiment [5], 0.548 µM.
For `CCOC(=O)c1c[nH]c2ccc3c(c12)CN1CCc2cc(OC)c(OC)cc2C1O3` (stereo unspecified), the IC50 in [1] came to 1.5 µM; in experiment [2], 10.3 µM; in experiment [3], 7.7 µM; in experiment [4], 47.4 µM; in experiment [5] it was 8.22 µM.
Turning to `CCOC(=O)c1c[nH]c2ccc3c(c12)CN1CCc2cc(OC)ccc2C1O3` (stereo unspecified), the IC50 came to 0.334 µM in [1]; 3.7 µM in experiment [2]; 4.56 µM in [3]; 6 µM in experiment [4]; 5.62 µM in experiment [5].
On the same counts, the results for `COC(=O)c1c(C)[nH]c2ccc3c(c12)CN1CCc2cc(OC)ccc2C1O3` (stereo unspecified) are 0.501 µM, 3.39 µM, 13.1 µM, 4.09 µM and 3.79 µM.
By inhibition is commonly meant the drop in the measured response relative to a control, in per cent. Higher therefore signals strong suppression. `CCOC(=O)c1c(C)[nH]c2ccc3c(c12)C[N+]1(C)CCc2cc(OC)ccc2C1O3` (stereo unspecified): the inhibition in experiment [6] was 0.9%; in experiment [7], 0%; in experiment [8], 0%; in experiment [9], 19.9%; in experiment [10] it was 14.7%; in experiment [11] it was 29.9%. Besides, the inhibition in experiment [12] is 1.6%; in experiment [13] it was 0%.
Turning to `CCCOC(=O)c1c(C)[nH]c2ccc3c(c12)CN1CCc2cc(OC)ccc2C1O3` (stereo unspecified), the half-inhibitory concentration (IC50) in experiment [1] worked out at 0.36 µM; in experiment [2], 1.48 µM; in [3] it was 1.91 µM; in [4], 3.81 µM; in [5] it was 1.96 µM.
Take `CCOC(=O)c1c(C)[nH]c2ccc3c(c12)CN1CCc2cccc(C)c2C1O3` (stereo unspecified): the IC50 is 1.47 µM in [1]; 2.83 µM in [2]; below 1 µM in experiment [3]; 1.73 µM in experiment [4]; 6.11 µM in experiment [5].
As to `CCOC(=O)c1c(C)[nH]c2ccc3c(c12)CN1CCc2cc(C)ccc2C1O3` (stereo unspecified), the IC50 was found to be 0.465 µM in experiment [1]; 2.72 µM in experiment [2]; 9.52 µM in experiment [3]; 3.88 µM in experiment [4]; 3.28 µM in [5].
Turning to `CCOC(=O)c1c(C)[nH]c2ccc3c(c12)CN1CCc2cc(OCC)ccc2C1O3` (stereo unspecified), the IC50 in experiment [1] was 1.62 µM; in experiment [2], 2.63 µM; in experiment [3], 2.56 µM; in experiment [4], 8.62 µM; in [5], 4.25 µM.
On the same counts, the results for `COc1cc2c(cc1OC)C1Oc3ccc4[nH]c(C)cc4c3CN1CC2` (stereo unspecified) are 4.74 µM, 32.6 µM, 14.7 µM, 43.5 µM and 32.7 µM.
In the case of `CCOC(=O)c1c(C)[nH]c2ccc3c(c12)CN1CCc2cc(Oc4ccccc4)ccc2C1O3` (stereo unspecified), the IC50 worked out at 2.63 µM in experiment [1]; 3.07 µM in experiment [2]; 1.65 µM in experiment [3]; 2.03 µM in [4]; 1.96 µM in experiment [5].
As to `CCOC(=O)c1c(C)[nH]c2ccc3c(c12)CN1CCc2cc(OC)ccc2C1O3` (stereo unspecified), the half-maximal inhibitory concentration (IC50) turned out to be 0.0907 µM in [1]; 0.95 µM in [2]; 3.44 µM in [3]; 7.41 µM in [4]; 6.56 µM in experiment [5].
The matching figures for `CCOC(=O)c1c(C)[nH]c2ccc3c(c12)CN1CCc2cc(OC)c(OC)cc2C1O3` (stereo unspecified): 0.301 µM, 1.62 µM, 9.34 µM, 26.6 µM and 12.9 µM.
